# Data as given in patent publication US20040192554A1, “Technique for effectively treating an agricultural product with a 1-substituted-cyclopropene” (priority 2003, published 2004).
# Test system: cut flower of a carnation (variety "Rosybabara")
# Experiment: Withering of carnation cut flower after storage, Example 10
# Type: in vivo
# Conditions: 1 ppm, after storage 20 degrees C 14 days, average score of 5 plants (0=healthy)
# Method: Using a cut flower (5 ornamental plants were used per group) of a carnation (variety “Rosybabara”) as an agricultural product, the following experiment was performed. […]
# 2) An ornamental plant was placed into a sealed chamber, and a pressure in the chamber was reduced to 12.5 kPa. Subsequently, 1-methylcyclopropene was placed therein to the concentration in the chamber of 1 ppm, and contact-treated for 1 minute under the reduced pressure (12.5 kPa).
# 3) An ornamental plant was placed in a sealed chamber. Subsequently, a pressure in the chamber was reduced to 12.5 kPa and the ornamental plant was kept in the chamber under the reduced pressure for 1 minute.
# An ornamental plant which had been subjected to treatment of the above-mentioned 1), 2) or 3) was stored at 20 degrees C for 14days, and an extent of withering of an ornamental plant was assessed by naked eyes. Assessment criteria were 4 stages; 0=healthy, 1=slight withering, 2=intermediate withering, […], and an average of assessment in 5 ornamental plants was calculated. Note that the treatment above-mentioned 1), 2) or 3) was performed on a day of harvesting an ornamental plant. In addition, also regarding an ornamental plant undergoing no treatment of 1), 2) or 3) (non-treatment), the similar storage was performed, and the above-mentioned index was measured.
smiles,measurement,setting,value
"CC1=CC1 [1-MCP, 1-methylcyclopropene]",Extent of withering,Normal pressure 1 hour,0.8
same,Extent of withering,Normal pressure 24 hours,0.4
same,Extent of withering,Reduced pressure (12.5 kPa) 1 minute,0.4
